The values that follow are results of earlier work, collected in US9999602B2, “Liquid menthol compositions” (DDROPS COMPANY, priority 2013, dated 2018).

The conditions of the series: FDA review, Federal Register 1987.

In the case of `CC(C)[C@@H]1CC[C@@H](C)C[C@H]1O` [menthol, (1R, 2S, 5R)-5-menthol-2-(1-methylethyl)-cyclohexanol], the “Dose of menthol required for antitussive (cough-suppressant) effect” value was “at least 5 mg”.
